Test results from publication PMC3914206.

Columns and labels:
panel of 442 kinases [1] = molecular target: T1, panel of 442 kinases (Homo sapiens, UniProt P36888, D835Y); format: binding; settings: Compound Concentration 10 µM
T1 construct: purchased KINOMEscan
T1 sequence (P36888 27-993 D835Y): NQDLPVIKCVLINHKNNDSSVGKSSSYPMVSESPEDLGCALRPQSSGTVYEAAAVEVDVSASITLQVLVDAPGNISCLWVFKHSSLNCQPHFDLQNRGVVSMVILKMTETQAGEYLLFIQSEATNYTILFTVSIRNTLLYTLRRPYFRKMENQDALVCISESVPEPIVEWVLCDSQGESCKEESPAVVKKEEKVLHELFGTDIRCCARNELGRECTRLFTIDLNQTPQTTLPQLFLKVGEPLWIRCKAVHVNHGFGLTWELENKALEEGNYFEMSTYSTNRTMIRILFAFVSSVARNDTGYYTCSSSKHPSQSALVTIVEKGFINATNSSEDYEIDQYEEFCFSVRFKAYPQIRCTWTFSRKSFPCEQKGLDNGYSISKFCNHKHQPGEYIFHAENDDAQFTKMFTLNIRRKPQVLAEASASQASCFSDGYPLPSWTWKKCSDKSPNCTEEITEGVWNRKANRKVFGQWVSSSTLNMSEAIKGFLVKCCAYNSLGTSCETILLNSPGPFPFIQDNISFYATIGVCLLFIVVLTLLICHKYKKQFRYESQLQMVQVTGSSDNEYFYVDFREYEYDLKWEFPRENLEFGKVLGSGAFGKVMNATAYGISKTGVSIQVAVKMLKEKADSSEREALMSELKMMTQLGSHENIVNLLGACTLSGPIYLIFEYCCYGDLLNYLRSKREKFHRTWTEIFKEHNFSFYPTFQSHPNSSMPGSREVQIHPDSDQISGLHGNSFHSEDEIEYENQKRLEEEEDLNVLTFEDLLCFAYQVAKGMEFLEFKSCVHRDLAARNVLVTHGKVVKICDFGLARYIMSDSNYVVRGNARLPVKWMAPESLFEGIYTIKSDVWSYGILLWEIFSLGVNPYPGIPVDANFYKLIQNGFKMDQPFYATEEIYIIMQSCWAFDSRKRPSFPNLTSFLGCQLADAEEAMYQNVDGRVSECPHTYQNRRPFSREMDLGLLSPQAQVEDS
From the text: (§1) We assessed the selectivity of members of this scaffold using the KINOMEscan methodology across a near comprehensive panel of 442 kinases [[18,27]].

panel of 442 kinases [2] = molecular target: T2, panel of 442 kinases (Homo sapiens, UniProt Q9P286); format: binding; settings: Compound Concentration 10 µM
T2 construct: purchased KINOMEscan
T2 sequence (Q9P286 whole entry): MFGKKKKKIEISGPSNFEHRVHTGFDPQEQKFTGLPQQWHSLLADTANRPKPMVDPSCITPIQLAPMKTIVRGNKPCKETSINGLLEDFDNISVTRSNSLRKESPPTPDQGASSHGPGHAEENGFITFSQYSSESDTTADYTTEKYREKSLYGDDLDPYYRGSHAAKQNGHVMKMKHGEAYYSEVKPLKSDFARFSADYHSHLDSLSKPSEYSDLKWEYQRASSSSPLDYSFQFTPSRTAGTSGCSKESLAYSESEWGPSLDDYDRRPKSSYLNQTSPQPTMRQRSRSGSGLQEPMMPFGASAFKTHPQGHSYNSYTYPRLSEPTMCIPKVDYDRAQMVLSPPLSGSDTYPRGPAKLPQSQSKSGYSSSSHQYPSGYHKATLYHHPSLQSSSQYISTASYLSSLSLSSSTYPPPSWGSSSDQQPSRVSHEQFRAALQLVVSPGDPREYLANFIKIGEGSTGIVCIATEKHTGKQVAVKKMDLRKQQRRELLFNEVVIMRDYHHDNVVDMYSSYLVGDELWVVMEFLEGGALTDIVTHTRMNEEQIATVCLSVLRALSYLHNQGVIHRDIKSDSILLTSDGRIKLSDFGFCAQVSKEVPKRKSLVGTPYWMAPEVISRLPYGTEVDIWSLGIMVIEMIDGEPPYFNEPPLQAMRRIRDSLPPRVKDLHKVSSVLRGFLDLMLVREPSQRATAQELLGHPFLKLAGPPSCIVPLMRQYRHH
From the text: as §1

SMILES | KINOMEscan: FLT3(D835Y) (panel of 442 kinases [1]) | KINOMEscan: PAK7 (panel of 442 kinases [2])
CCOc1cc(C(=O)N2CCC(N3CCN(C)CC3)CC2)ccc1Nc1ncc2c(n1)N(C1CCCC1)c1ccccc1C(=O)N2C [Compound 26] | 100 | 100
COc1cc(C(=O)N2CCC(N3CCN(C)CC3)CC2)ccc1Nc1ncc2c(n1)N(C1CCCC1)c1ccccc1C(=O)N2C [Compound 25, 11-cyclopentyl-2-((2-methoxy-4-(4-(4-methylpiperazin-1-yl)piperidine-1-carbonyl)phenyl)amino)-5-methyl-5H-benzo[e]pyrimido[5,4-b][1,4]diazepin-6(11H)-one] | 100 | 100
COc1cc(C(=O)N2CCC(N3CCN(C)CC3)CC2)ccc1Nc1ncc2c(n1)N(C)c1ccccc1C(=O)N2C [15 (LRRK2-IN-1)] | 100 | 96
